# Values joined by “and” are separate entries in the source; they are usually repeats but may differ in a detail not shown here. Equal values may be shown once.
# System: SARS-CoV-2, isolate USA-WA1/2020
# Experiment: microbe, parasite or virus in culture
# Type: cell-based
# Details: HeLa-ACE2 SARS-CoV-2 antiviral effect without P-gp inhibitor; maximum measured response of dose series
row,SMILES,perc_max_measured
1,CC(C)[C@@H](Nc1ncnc2[nH]c(-c3cnn(C)c3C#N)cc12)c1ccc2c(c1)OCCO2 (racemic) [ASAP-0008275],109.522%

# Same assay, conditions: HeLa-ACE2 SARS-CoV-2 antiviral effect without P-gp inhibitor; minimum measured response of dose series
row,SMILES,perc_min_measured
1,CC(C)[C@@H](Nc1ncnc2[nH]c(-c3cnn(C)c3C#N)cc12)c1ccc2c(c1)OCCO2 (racemic) [ASAP-0008275],3.811% and 0.0%

# Same assay, conditions: HeLa-ACE2 SARS-CoV-2 antiviral effect without P-gp inhibitor; read-out: ec50
row,SMILES,EC50
1,CC(C)[C@@H](Nc1ncnc2[nH]c(-c3cnn(C)c3C#N)cc12)c1ccc2c(c1)OCCO2 (racemic) [ASAP-0008275],1.73 µM and 1.72 µM

# Same assay, conditions: HeLa-ACE2 SARS-CoV-2 antiviral effect without P-gp inhibitor; read-out: ec90
row,SMILES,EC90
1,CC(C)[C@@H](Nc1ncnc2[nH]c(-c3cnn(C)c3C#N)cc12)c1ccc2c(c1)OCCO2 (racemic) [ASAP-0008275],4.31 µM and 4.23 µM

# System: not listed separately
# Experiment: LogD
# Details: pH 7.4; In vitro LogD
row,SMILES,logd
1,CC(C)[C@@H](Nc1ncnc2[nH]c(-c3cnn(C)c3C#N)cc12)c1ccc2c(c1)OCCO2 (racemic) [ASAP-0008275],3.0

# System: not listed separately
# Experiment: in vitro
# Details: human, hela-ace2 cells, 50.0
row,SMILES,CC50 at 24 h
1,CC(C)[C@@H](Nc1ncnc2[nH]c(-c3cnn(C)c3C#N)cc12)c1ccc2c(c1)OCCO2 (racemic) [ASAP-0008275],> 50 µM

# System: SARS-CoV-2
# Experiment: Antiviral effect in iPSC-derived pneumocyte system
# Type: cell-based
# Details: iPSC pneumocytes SARS-CoV-2 antiviral effect; maximum measured response of dose series
row,SMILES,perc_max_measured
1,CC(C)[C@@H](Nc1ncnc2[nH]c(-c3cnn(C)c3C#N)cc12)c1ccc2c(c1)OCCO2 (racemic) [ASAP-0008275],108.15% and 116.315%

# Same assay, conditions: iPSC pneumocytes SARS-CoV-2 antiviral effect; minimum measured response of dose series
row,SMILES,perc_min_measured
1,CC(C)[C@@H](Nc1ncnc2[nH]c(-c3cnn(C)c3C#N)cc12)c1ccc2c(c1)OCCO2 (racemic) [ASAP-0008275],1.229% and 8.563%

# System: not listed separately
# Experiment: Hepatic microsomal stability, HLM
# Type: in vitro ADME, human
# Details: In vitro human liver microsomal stability
SMILES,clint,perc_remaining,t_half
CC(C)[C@@H](Nc1ncnc2[nH]c(-c3cnn(C)c3C#N)cc12)c1ccc2c(c1)OCCO2 (racemic) [ASAP-0008275],74.0 µL/min/mg,25.0%,22.6 min

# Same assay, conditions: In vitro human liver microsomal stability; no cofactor
row,SMILES,perc_remaining_no_cofactor
1,CC(C)[C@@H](Nc1ncnc2[nH]c(-c3cnn(C)c3C#N)cc12)c1ccc2c(c1)OCCO2 (racemic) [ASAP-0008275],111.0%

# System: not listed separately
# Experiment: Hepatic microsomal stability, MLM
# Type: in vitro ADME
# Details: In vitro mouse liver microsomal stability
SMILES,clint,perc_remaining,t_half
CC(C)[C@@H](Nc1ncnc2[nH]c(-c3cnn(C)c3C#N)cc12)c1ccc2c(c1)OCCO2 (racemic) [ASAP-0008275],218.0 µL/min/mg,3.0%,7.7 min

# Same assay, conditions: In vitro mouse liver microsomal stability; no cofactor
row,SMILES,perc_remaining_no_cofactor
1,CC(C)[C@@H](Nc1ncnc2[nH]c(-c3cnn(C)c3C#N)cc12)c1ccc2c(c1)OCCO2 (racemic) [ASAP-0008275],97.0%

# System: not listed separately
# Experiment: Permeability Papp (AB) MDR1/MDCKII
# Details: In vitro MDR1-MDCKII permeability, A to B, mean
row,SMILES,papp_a_to_b_mean
1,CC(C)[C@@H](Nc1ncnc2[nH]c(-c3cnn(C)c3C#N)cc12)c1ccc2c(c1)OCCO2 (racemic) [ASAP-0008275],4.2 ×10⁻⁶ cm/s

# Same assay, conditions: In vitro MDR1-MDCKII permeability, recovery A to B, mean
row,SMILES,perc_recovery_a_to_b_mean
1,CC(C)[C@@H](Nc1ncnc2[nH]c(-c3cnn(C)c3C#N)cc12)c1ccc2c(c1)OCCO2 (racemic) [ASAP-0008275],36.0%

# System: iPSC pneumocytes
# Experiment: iPSC pneumocytes cytotoxicity
# Type: cell-based
# Details: protocol iPSC pneumocytes cytotoxicity
# Description: Supplement media-1.zip/Cytotoxicity.csv, table | column: cc10; cc50; perc_min_measured; perc_max_measured
SMILES,CC50,cc10
CC(C)[C@@H](Nc1ncnc2[nH]c(-c3cnn(C)c3C#N)cc12)c1ccc2c(c1)OCCO2 (racemic) [ASAP-0008275],> 50 µM,13.408 µM

# Same assay, conditions: protocol iPSC pneumocytes cytotoxicity; highest measured response of the dose series
row,SMILES,perc_max_measured
1,CC(C)[C@@H](Nc1ncnc2[nH]c(-c3cnn(C)c3C#N)cc12)c1ccc2c(c1)OCCO2 (racemic) [ASAP-0008275],110.873% and 99.023%

# Same assay, conditions: protocol iPSC pneumocytes cytotoxicity; lowest measured response of the dose series
row,SMILES,perc_min_measured
1,CC(C)[C@@H](Nc1ncnc2[nH]c(-c3cnn(C)c3C#N)cc12)c1ccc2c(c1)OCCO2 (racemic) [ASAP-0008275],69.382% and 78.095%

# System: HeLa-ACE2 cells
# Experiment: not given
# Details: protocol HeLa-ACE2 cytotoxicity
SMILES,CC50,cc10
CC(C)[C@@H](Nc1ncnc2[nH]c(-c3cnn(C)c3C#N)cc12)c1ccc2c(c1)OCCO2 (racemic) [ASAP-0008275],> 50 µM,> 50.0 µM

# Same assay, conditions: protocol HeLa-ACE2 cytotoxicity; highest measured response of the dose series
row,SMILES,perc_max_measured
1,CC(C)[C@@H](Nc1ncnc2[nH]c(-c3cnn(C)c3C#N)cc12)c1ccc2c(c1)OCCO2 (racemic) [ASAP-0008275],136.373%

# Same assay, conditions: protocol HeLa-ACE2 cytotoxicity; lowest measured response of the dose series
row,SMILES,perc_min_measured
1,CC(C)[C@@H](Nc1ncnc2[nH]c(-c3cnn(C)c3C#N)cc12)c1ccc2c(c1)OCCO2 (racemic) [ASAP-0008275],77.442%

# System: not listed separately
# Experiment: in vitro
# Parameters: Cytotoxicity in iPSC-derived pneumocytes, CC50
# Details: human, ipsc-derived pneumocytes; ASAP-0008327-001=ASAP-0008275-001; read-out: 50.0
# Description: Finally, we consider the hypothesis that interferon response triggers ADP-ribosylation, thus profiling the compounds in enhanced and physiologically relevant interferon environments could reveal detectable antiviral effects. […] Furthermore, HeLa-ACE2 cells, and all cancerous cell lines, display defective innate immune response ([1]). As such, we also assess our compound in a primary-like iPSC-derived pneumocyte system (Figure 7C), showing likewise a lack of antiviral activity in this physiologically relevant innate immunity system.
row,SMILES,CC50
1,CC(C)[C@@H](Nc1ncnc2[nH]c(-c3cnn(C)c3C#N)cc12)c1ccc2c(c1)OCCO2 (racemic) [ASAP-0008275],> 50 µM

# System: not listed separately
# Experiment: In vitro kinetic solubility
# Details: In vitro kinetic solubility, ph 7.4
row,SMILES,solubility_mean
1,CC(C)[C@@H](Nc1ncnc2[nH]c(-c3cnn(C)c3C#N)cc12)c1ccc2c(c1)OCCO2 (racemic) [ASAP-0008275],17 µM

# — publication doi:10.1101/2024.08.19.608619, “Discovery of potent SARS-CoV-2 nsp3 macrodomain inhibitors uncovers lack of translation to cellular antiviral response” (bioRxiv, 2024)
